# From patent publication US8993634B2, “Methods and use of compounds that bind to Her2/neu receptor complex” (The Trustees Of The University Of Pennsylvania, priority 2010, dated 2015)
# Assays:
# T6-17 cells = assay: Anchorage-independent growth (soft agar colony) screening, T6-17 cells; assay type: cell-based, murine; conditions: p<0.05, FIG. 1
# Procedure: (§1) Targeted molecules were screened in vitro for anti-tumor activity using a modified […] growth of transformed cell assay, as described in Fukazawa et al. (1995), Anal. Biochem., 10:83-90. Anchorage-independent growth capability is perhaps the best indicator of the malignant phenotype and is determined by efficiency of cells to form colonies in soft agar (Drebin, et al., 1985). All experiments were conducted in 6 cm dishes in triplicate. Agar bottom layers consisted of 3 ml 0.25% agarose/DMEM (Dulbecco's Modified Eagle Medium) supplemented with 10% FBS (Fetal Bovine Serum), 2 mM L-glutamine, and 100μ/ml Penicillin/1 μg/ml Streptomycin. About 1000-2000 cells T6-17/SK-BR-3 are layered on the top in 1 ml 0.18% agarose/DMEM, 10% FBS, 2 mM L-glutamine, and 100 u/ml Penicillin/i 1 μg/ml Streptomycin. Cultures were treated every 3 days with 0.5 ml of supplemented DMEM containing measured amounts of the Her2 inhibitors, or DMSO (dimethyl sulfoxide) alone. On the day before the colonies were counted, the samples were incubated with 1 ml of Hank's Balanced Salt Solution containing 1 mg/ml p-iodonitrotetrazolium violet (INT, Sigma) to stain colonies. The next day, colonies were counted using a 7× achromatic magnifying eyepiece (Bausch and Lomb). Triplicate cultures were counted on day 21 and will be verified by at least two different persons. […]
# SK-BR-3 cells = assay: Anchorage-independent growth (soft agar colony) screening, SK-BR-3 cells; assay type: cell-based, human; conditions: p<0.05, FIG. 1
# Procedure: as §1
compound,measurement,setting,value
CC(C)(C#Cc1cc(C(F)(F)F)cc(C(F)(F)F)c1)NC(=S)Nc1cccc(F)c1 [S22—04],cellular growth in culture (colonies in soft agar),T6-17 cells,reduced cellular growth in culture
same,cellular growth in culture (colonies in soft agar),SK-BR-3 cells,reduced cellular growth in culture
